Source: patent US20230323296A1, “STEM CELL-LIKE MEMORY T CELLS AND USES THEREOF” (GEORGETOWN UNIVERSITY, priority 2020, published 2023)

Legend:
[1] = tested on: CD4+ T cells in the tumor microenvironment (TME); assay: In vivo TSCM generation in TC-1 tumor bearing mice (FACS of tumors); conditions: MEKi 10 mg/Kg oral gavage, 15 doses
Method: Mice were treated and tumors were isolated. The frequency of CD4^+ cells in variously treated mice (UT, untreated; Vax; MEKi, MEK1/2 inhibitor only; and Vax +MEKi, both E7 and MEK inhibitor) were determined. Error bars represent mean±SEM. (^NSnon-significant, *p≤0.05, **p≤0.01). For Vax treated mice, The CTL epitope from HPV16 E749-57 (RAHYNIVTF, 100 μg/mouse) was used mixed with PADRE, a small 13-mer non-natural pan HLA DR-binding sequence that is a potent T helper cell epitope (20 μg/mouse-Celtek Bioscience, Franklin, TN), and QuilA (adjuvant, 10 μg/mouse-Brenntag, Westbury, NY). Two doses of the vaccine were administered subcutaneously (s.c.) every seven days starting at an average tumor volume of 0.07-0.08 cm^3. Three days after the second vaccination, mice were sacrificed and expression of various markers was analyzed in cells from the tumors by flow cytometry
The frequency of CD62L^+CD44^− CD4^+ T cells in variously treated mice as described for FIG. 1A were determined. Error bars represent mean±SEM. (^NSnon-significant, *p≤0.05, **p≤0.01).
TC-1 tumor bearing mice were treated with an MEK inhibitor (MEKi) (10 mg/Kg), for a total of 15 doses, given everyday by oral gavage, starting when tumor reached an average size of 0.05 cm^3. […] The single-cell suspended tumors were labelled with appropriately conjugated fluorophore conjugated antibodies and analyzed by FACS.

[2] = tested on: CD4 cells from the splenocytes of wild type (WT) mice; assay: In vitro assay of TSCM induction in activated CD4 cells (FACS); assay type: cell-based; conditions: TCONV cells activated with IL-2/anti-CD3/anti-CD28, 72 hours, MEKi 1 uM, vs cells activated without MEK1/2 inhibitor; FIG. 2A
Method: T conventional (TCONV) cells (from mouse spleen), defined as CD4^+FoxP3^− cells, were activated (Act) by IL-2 with anti-CD3/anti-CD28 in the presence (+) or absence (−) of MEK1/2 inhibitor for 72 hours, and the number of Sca1^+CD62L^+CD44^−CD4^+ T cells was determined by flow cytometry sorting (FACS).
CD4 cells from the splenocytes of wild type (WT) mice were prepared by magnetic purification using Biolegend cell sorting kits, as per the manufacturer's instructions. Purified cells were activated by plating 1×10^6/ml in cell activation medium that contained rIL-2 (100 IU/ml), anti-CD3 (5 ug/ml), anti-CD28 (2.5 ug/ml) and MEKi (1 uM). Appropriate arms (only cell activation and only IL-2 treatment) were also included for valid comparisons. After 72 hours of incubation at 37° C., at 5% CO2 in a humidified incubator, cells were picked up and processed for FACS analysis of TSCM induction.

N#CC(=C(N)Sc1ccc(N)cc1)c1ccccc1C(F)(F)F [MEK1/2 inhibitor]
numbers of CD4+ T cells in the tumor microenvironment (TME) ([1]; FIG. 1A): increases
induction of CD4+ T cells with a naive-like phenotype (CD62L+CD44-) in the TME ([1]; FIG. 1B): significantly enhanced
generation of Sca1+ TNAIVE CD4+ T cells [2]: significantly enhanced
